Where two headings read alike, the source gives them in different places.
What was measured:
[1] = SCID, mouse, in vivo, iv
[2] = female, SCID, mouse, in vivo, iv
[3] = Dox-Hyd-C18 nanoparticles: plasma, liver and lung levels in female SCID mice; type: in vivo; conditions: about 1.8 mg-eq/kg IV
[4] = Dox-Hyd-C12 nanoparticles: plasma, liver and lung levels in female SCID mice; conditions: Dox-Hyd-C12 nanoparticle study, about 2.2 mg-eq/kg IV

Row | Structure (SMILES) | tmax [1] [min] | AUC0-t [2] [ng·h/mL] | AUC0-∞ [2] [ng·h/mL] | tmax [2] [h] | doxorubicin from hydrolysis of prodrug in tissue [3] | time nanoparticles circulate in plasma [3] | doxorubicin from hydrolysis of prodrug in tissue [4]
1 | Cn1c(CCCC(=O)O)nc2cc(N(CCCl)CCCl)ccc21 [Bendamustine, bendamustine] | 4.98 | 566 | 589 | 0083 |  |  | 
2 | CCCCCCCCCCCCCCCCCC(=O)NN=C(CO)[C@]1(O)Cc2c(O)c3c(c(O)c2[C@@H](O[C@H]2C[C@H](N)[C@H](O)[C@H](C)O2)C1)C(=O)c1c(OC)cccc1C3=O [Dox-Hyd-C18] |  |  |  |  | detected in liver and lung tissue | up to 24 hours | detected in liver and lung tissue
